Assay results: US20150159169A1, “Plants Tolerant to HPPD Inhibitor Herbicides” (Bayer CropScience AG, priority 2009, published 2015)
Values joined by “and” are separate entries in the source; they are usually repeats but may differ in a detail not shown here. Equal values may be shown once.

Assays:
wild type tobacco plants = test: Glasshouse spray trial, % injury; format: in vivo, Nicotiana tabacum; conditions: 7DAT, 100 gAI/ha spray; individual WT plants; 100% = bleaching as wild type
Experimental: (§1) T0 Tobacco plants containing either the gene from Arabidopsis coding for HPPD or the gene FMP27e from Kordia algicida coding for FMP27 HPPD, mentioned above (Example 3), were transferred to the glasshouse (28/20° C.), to develop further and produce seeds. Those seeds were harvested and put on soil (ED73 mixed with sand and osmocote Pro) to germinate in the glasshouse (28/20° C.). Three to four weeks later, plantlets were transferred to single pots containing the soil mentioned above. Two weeks later, plants of a size 4-6 cm diameter were sprayed with either • tembotrione at 100 gAI/ha prepared from a WP20 (wettable powder 20%) formulation supplemented with ammonium sulfate and methyl ester raps oil, or • isoxaflutole at 100 gAI/ha prepared from a WP20 formulation supplemented with ammonium sulfate and methyl ester raps oil, or • bicyclopyrone at 100 gAI/ha prepared from a WP20 formulation supplemented with ammonium sulfate and methyl ester raps oil, or • “blind formulation” made from a WP20 formulation without active ingredient (AI) supplemented with ammonium sulfate and methyl ester raps oil, and were then transferred to a growth chamber with adequate light conditions (20000 Lux).
(§2) Table 6: Wild type tobacco plants (A) and T1 populations of tobacco events containing alternatively, the expression cassettes described above having the promoter CaMV 35S, the sequence coding for OTP and the sequence coding for Arabidopsis HPPD (B) or the promoter CaMV35S, the sequence encoding OTP, and the sequence FMP27e coding for the HPPD FMP27 (C). Assessments of herbicidal damage at 7 days after application (DAT) per spray with 100 g AI/ha of tembotrione or isoxaflutole supplemented with ammonium sulfate and methyl ester raps oil. […] Plants belonging to categories (B) and (C) have not been selected for the presence of the respective transgene prior to the herbicide application.

[1] = test system: T1 tobacco plants containing FMP27e (Kordia algicida HPPD FMP27); test: Glasshouse spray trial, % injury; format: in vivo, Nicotiana tabacum; conditions: 7DAT, 100 gAI/ha spray
Experimental: as §1, §2

[2] = test system: T1 tobacco plants containing Arabidopsis HPPD; test: Glasshouse spray trial, % injury; format: in vivo, Nicotiana tabacum; conditions: 7DAT, 100 gAI/ha spray
Experimental: as §1, §2

wild-type soybean shoots = test: Soybean shoot greening on isoxaflutole selection; format: cell-based; conditions: same amount of isoxaflutole
Source text: (§3) Soybean transformation was achieved using methods well known in the art, such as the one described using the Agrobacterium tumefaciens mediated transformation soybean half-seed explants described by Paz et al. (2006, Plant cell Rep. 25:206). Transformants were identified using Isoxaflutole as selection marker. The appearance of green shoots was observed, and documented as an indicator of tolerance to the herbicide isoxaflutole. […] Tolerant green shoots were transferred to rooting media or grafted. Rooted plantlets were transferred to the glasshouse after an acclimation period.

[3] = test system: transgenic soybean shoots (FMP27 protein); test: Soybean shoot greening on isoxaflutole selection; format: cell-based; conditions: isoxaflutole as selection marker
Source text: as §3

## CS(=O)(=O)c1cc(C(F)(F)F)ccc1C(=O)c1cnoc1C1CC1 [Isoxaflutole, (5-cyclopropyl-4-isoxazolyl)[2-(methylsulfonyl)-4-(trifluoromethyl)phenyl]methanone]
Wild type tobacco plants
  % injury: 99% (2×) and 100% (4×) and 98%
[1]; line 121, individual T1 plants
  % injury: 0% (4×) and 1% and 2% and 20%
[1]; line 129, individual T1 plants
  % injury: 0% (4×) and 1% (3×) and 2% (3×) and 5% and 10% (2×)
[1]; line 218, individual T1 plants
  % injury: 0% (9×) and 1% (3×) and 2% and 3% and 5%
[2]; line 252, individual T1 plants
  % injury: 30% and 70% and 95% and 98% (2×) and 99% (4×) and 100% (4×)
[2]; line 258, individual T1 plants
  % injury: 100%
[2]; line 327, individual T1 plants
  % injury: 10% and 20% and 60% (2×) and 70% and 80% and 95% and 98% and 99% and 100% (6×)
wild-type soybean shoots
  appearance of shoots treated with isoxaflutole: entirely bleached
[3]
  transgenic tested shoots showing normal greening: 1%
